# Like-named read-outs stand apart in the source and are kept apart here.
# How the values were obtained:
# Type in all cases: cell-based
# S. marcescens = experiment: In vitro activity (geometric mean MIC, serial dilution); settings: Serratia marcescens; 16 strains; Mueller-Hinton agar, inoculum 10^4 dilution; MIC cutoff 200 mcg./ml.; read-out: Geometric Mean MIC
# S. pyogenes = experiment: as above; settings: Streptococcus pyogenes; 10 strains; Mueller-Hinton agar, inoculum 10^4 dilution; MIC cutoff 200 mcg./ml.
# Pr. rettgeri = experiment: In vitro antibacterial activity (Steers' agar dilution MIC); settings: Providencia rettgeri
# St. faecalis = experiment: as above; settings: Enterococcus faecalis
# [1] = system: S. aureus (Methicillin-R); experiment: In vitro activity (geometric mean MIC, serial dilution); settings: Staphylococcus aureus; 15 strains; Mueller-Hinton agar, inoculum 10^4 dilution; MIC cutoff 200 mcg./ml.
# [2] = system: S. aureus penicillinase+); experiment: as above; settings: Staphylococcus aureus, read-out: Geometric Mean MIC
# Providencia sp. = experiment: as above; settings: read-out: Geometric Mean MIC
# Proteus (indole +) = experiment: as above; settings: read-out: Geometric Mean MIC
# Enterobacter (sensitive) = experiment: as above; settings: 3 strains, Mueller-Hinton agar, inoculum 10^4 dilution, MIC cutoff 200 mcg./ml., read-out: Geometric Mean MIC
# [3] = system: Enterobacter (Cephalosporinase +); experiment: as above; settings: 7 strains, Mueller-Hinton agar, inoculum 10^4 dilution, MIC cutoff 200 mcg./ml.
# Ps. aeruginosa = experiment: In vitro antibacterial activity (Steers' agar dilution MIC)
# [4] = system: Proteus (indole +, cephalosporinase +); experiment: In vitro activity (geometric mean MIC, serial dilution); settings: 5 strains; Mueller-Hinton agar, inoculum 10^4 dilution; MIC cutoff 200 mcg./ml.; read-out: Geometric Mean MIC
# Shig. dysenteriae = experiment: In vitro antibacterial activity (Steers' agar dilution MIC); settings: Shigella dysenteriae
# Pr. vulgaris = experiment: as above; settings: Proteus vulgaris
# Kl. pneumoniae = experiment: as above; settings: Klebsiella pneumoniae
# Text: (§1) In vitro Antibacterial Activity of BB-S493 Compared with
# (§2) BB-S479 and Cefamandole (Determined by Steers' Agar Dilu-
# (§3) tion Method on Mueller-Hinton Agar Plate)
# (§4) In vitro antibacterial activity of BB-S 525 compared with
# (§5) BB-S 479 and cefamandole (determined by Steers' agar dilution
# (§6) method on Mueller-Hinton agar plate)
# E. coli = experiment: as above; settings: Escherichia coli
# Text: as §1, §2, §3, §4, §5, §6
# S. aureus = experiment: as above; settings: Staphylococcus aureus
# Text: as §1, §2, §3, §4, §5, §6
# Sal. typhosa = experiment: as above
# Text: as §1, §2, §3, §4, §5, §6
# Shig. flexneri = experiment: as above
# Text: as §1, §2, §3, §4, §5, §6
# Shig. sonnei = experiment: as above; settings: Shigella sonnei
# Text: as §1, §2, §3, §4, §5, §6
# B. anthracis = experiment: microbe, parasite or virus in culture; settings: Bacillus anthracis
# Enterob. cloacae = experiment: In vitro antibacterial activity (Steers' agar dilution MIC)
# D. pneumoniae = experiment: In vitro activity (geometric mean MIC, serial dilution); settings: Streptococcus pneumoniae; 9 strains; Mueller-Hinton agar, inoculum 10^4 dilution; MIC cutoff 200 mcg./ml.
# Sal. enteritidis = experiment: In vitro antibacterial activity (Steers' agar dilution MIC); settings: Salmonella enterica
# Serr. marcescens = experiment: as above; settings: Serratia marcescens
structure (smiles),measurement,setting,value
"Cn1nnnc1SCC1=C(C(=O)O)N2C(=O)[C@@H](NC(=O)[C@H](O)c3ccccc3)[C@H]2SC1 [Cefamandole, reference compound]",MIC,S. marcescens,34 µg/mL
same,MIC,S. pyogenes,0.04 µg/mL
same,MIC,"Pr. rettgeri; table 2 (BB-S493), Pr. rettgeri A15167",0.1 µg/mL
same,MIC,"Pr. rettgeri; table 4 (BB-S 525), Pr. rettgeri",0.1 µg/mL
same,MIC,St. faecalis,50 µg/mL
same,MIC,"St. faecalis; table 4 (BB-S 525), St. faecalis, read-out: MIC",100 µg/mL
same,MIC,[1],2.4 µg/mL
same,MIC,[2],0.4 µg/mL
same,MIC,Providencia sp.,0.7 µg/mL
same,MIC,Proteus (indole +),0.5 µg/mL
same,MIC,Enterobacter (sensitive),1 µg/mL
same,MIC,[3],4.7 µg/mL
same,MIC,"Ps. aeruginosa; Pseudomonas aeruginosa, table 2 (BB-S493), Ps. aeruginosa A9843, read-out: MIC",> 100 µg/mL
same,MIC,"Ps. aeruginosa; table 2 (BB-S493), Ps. aerugionsa A9930",> 100 µg/mL
same,MIC,"Ps. aeruginosa; table 4 (BB-S 525), Ps. aeruginosa, 1st line",> 100 µg/mL
same,MIC,"Ps. aeruginosa; table 4 (BB-S 525), Ps. aeruginosa, 2nd line",> 100 µg/mL
same,MIC,[4],3.6 µg/mL
same,MIC,"Shig. dysenteriae; table 2 (BB-S493), Shig dysenteriae",0.2 µg/mL
same,MIC,"Shig. dysenteriae; table 4 (BB-S 525), Shig. dysenteriae",0.1 µg/mL
same,MIC,Pr. vulgaris,50 µg/mL
same,MIC,"Pr. vulgaris; table 2 (BB-S493), Pr. vulgaris A9436, read-out: MIC",0.2 µg/mL
same,MIC,"Pr. vulgaris; table 2 (BB-S493), Pr. vulgaris A9699, read-out: MIC",25 µg/mL
same,MIC,"Pr. vulgaris; table 4 (BB-S 525), Pr. vulgaris, 1st line, read-out: MIC",0.2 µg/mL
same,MIC,"Kl. pneumoniae; table 2 (BB-S493), Kl. pneumoniae A9678",1.6 µg/mL
same,MIC,"Kl. pneumoniae; table 2 (BB-S493), Kl. pneumoniae A9867",0.8 µg/mL
same,MIC,"Kl. pneumoniae; table 2 (BB-S493), Kl. pneumoniae A9977",0.4 µg/mL
same,MIC,"Kl. pneumoniae; table 2 (BB-S493), Kl. pneumoniae A15130",0.4 µg/mL
same,MIC,"Kl. pneumoniae; table 4 (BB-S 525), Kl. pneumoniae, 1st line",3.1 µg/mL
same,MIC,"Kl. pneumoniae; table 4 (BB-S 525), Kl. pneumoniae, 2nd line",0.2 µg/mL
same,MIC,"Kl. pneumoniae; table 4 (BB-S 525), Kl. pneumoniae, 3rd line",0.8 µg/mL
same,MIC,"Kl. pneumoniae; table 4 (BB-S 525), Kl. pnuemoniae, 4th line",0.8 µg/mL
same,MIC,"E. coli; ATCC8739, table 2 (BB-S493), E. coli ATCC 8739, read-out: MIC",0.05 µg/mL
same,MIC,"E. coli; ATCC8739, table 4 (BB-S 525), E. coli ATCC 8739",6.3 µg/mL
same,MIC,"E. coli; table 2 (BB-S493), E. coli A9660, read-out: MIC",0.1 µg/mL
same,MIC,"E. coli; table 2 (BB-S493), E. coli A15147, read-out: MIC",3.1 µg/mL
same,MIC,"E. coli; table 2 (BB-S493), E. coli A15810, read-out: MIC",0.2 µg/mL
same,MIC,"E. coli; table 2 (BB-S493), E. coli BX-1373, read-out: MIC",0.4 µg/mL
same,MIC,"E. coli; table 2 (BB-S493), E. coli Juhl A15119, read-out: MIC",0.4 µg/mL
same,MIC,"E. coli; table 2 (BB-S493), E. coli NIHJ, read-out: MIC",0.025 µg/mL
same,MIC,"E. coli; table 4 (BB-S 525), E. coli BX-1373, read-out: MIC",0.2 µg/mL
same,MIC,"E. coli; table 4 (BB-S 525), E. coli Juhl, read-out: MIC",0.4 µg/mL
same,MIC,"E. coli; table 4 (BB-S 525), E. coli NIHJ, read-out: MIC",0.1 µg/mL
same,MIC,"E. coli; table 4 (BB-S 525), E. coli, strain not given, 1st line, read-out: MIC",0.1 µg/mL
same,MIC,"E. coli; table 4 (BB-S 525), E. coli, strain not given, 2nd line, read-out: MIC",0.05 µg/mL
same,MIC,"E. coli; table 4 (BB-S 525), E. coli, strain not given, 3rd line, read-out: MIC",1.6 µg/mL
same,MIC,"S. aureus; table 2 (BB-S493), S. aureus A9497",0.05 µg/mL
same,MIC,"S. aureus; table 2 (BB-S493), S. aureus BX-1633 A9606",0.2 µg/mL
same,MIC,"S. aureus; table 2 (BB-S493), S. aureus Smith A9537",0.1 µg/mL
same,MIC,"S. aureus; table 4 (BB-S 525), S. aureus (strain not given)",0.05 µg/mL
same,MIC,"S. aureus; table 4 (BB-S 525), S. aureus BX-1633",0.2 µg/mL
same,MIC,"S. aureus; table 4 (BB-S 525), S. aureus Smith",0.2 µg/mL
same,MIC,"Sal. typhosa; table 2 (BB-S493), Sal. typhosa A9498",0.1 µg/mL
same,MIC,"Sal. typhosa; table 4 (BB-S 525), Sal. typhosa",0.1 µg/mL
same,MIC,"Shig. flexneri; Shigella flexneri, table 2 (BB-S493), Shig. flexneri A9684, read-out: MIC",3.1 µg/mL
same,MIC,"Shig. flexneri; table 4 (BB-S 525), Shig. flexneri",3.1 µg/mL
same,MIC,"Shig. sonnei; table 2 (BB-S493), Shig. sonnei A9516",0.05 µg/mL
same,MIC,"Shig. sonnei; table 4 (BB-S 525), Shig. sonnei",0.2 µg/mL
same,MIC,"B. anthracis; table 2 (BB-S493), B. anthracis A9504",0.2 µg/mL
same,MIC,"B. anthracis; table 4 (BB-S 525), B. anthracis",0.05 µg/mL
same,MIC,"Enterob. cloacae; table 2 (BB-S493), Enterob. cloacae A9656",3.1 µg/mL
same,MIC,"Enterob. cloacae; table 4 (BB-S 525), Enterob. cloacae",1.6 µg/mL
same,MIC,D. pneumoniae,0.2 µg/mL
same,MIC,"Sal. enteritidis; table 2 (BB-S493), Sal. enteritidis A9531",0.1 µg/mL
same,MIC,"Sal. enteritidis; table 4 (BB-S 525), Sal. enteritidis",0.1 µg/mL
same,MIC,"Serr. marcescens; table 4 (BB-S 525), Serr. marcescens",50 µg/mL
same,MIC,"Serr. marcescens; table 2 (BB-S493), Serr. marcescens A20019",50 µg/mL

# — patent US4198506A, “2-Carboxyalkyl-2,3-dihydro-6-mercapto-s-triazolo[4,3-b]-pyridazin-3-ones” (Bristol-Myers Company, priority 1979, dated 1980)
